# System: beta-TC6 cells
# Experiment: Insulin HTRF assay (relative activity Ar) in beta-TC6 cells
# Assay type: cell-based, mouse
# Conditions: Mus musculus, Beta-TC6, 4 h, insulin HTRF, supernatant of beta-TC6 cells, incubation with test compound at 37°C for 2, 3, 4h; read-out: Ar (relative activity)
# Procedure, shortened: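 beta-TC6 cells (15k/well, seeded 24 or 48 h) washed, then exposed to compound in induction buffer (0.5% DMSO final) for 2, 3 or 4 h at 37°C.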
row,Structure (SMILES),Emax [%]
1,"CNc1nc2cnc(-c3cccnc3)cc2n1Cc1cccnc1 [Compound 563, N-methyl-6-(3-pyridyl)-1-(3-pyridylmethyl)imidazo[4,5-c]pyridin-2-amine]",50 to 100
2,"CC(C)c1cccc(Nc2cc3[nH]c(-c4ccc(C(=O)N(C)C)cc4)cc3cn2)c1 [Compound 36, 4-[6-(3-isopropylanilino)-1H-pyrrolo[3,2-c]pyridin-2-yl]-N,N-dimethyl-benzamide]",0 to 30
3,"COc1cc(Nc2nc3cnc(-c4cccnc4)cc3n2C)cc(OC)c1OC [Compound 589, 1-methyl-6-(3-pyridyl)-N-(3,4,5-trimethoxyphenyl)imidazo[4,5-c]pyridin-2-amine]",50 to 100
4,"Cn1c(NCC2CCCO2)nc2cnc(Nc3cccc(Cl)c3)cc21 (stereo not shown) [Compound 642, N6-(3-chlorophenyl)-1-methyl-N2-(tetrahydrofuran-2-ylmethyl)imidazo[4,5-c]pyridine-2,6-diamine]",50 to 100
5,"CNc1nc2cnc(Nc3ccc4c(c3)OCCO4)cc2n1-c1ccccc1 [Compound 505, N6-(2,3-dihydro-1,4-benzodioxin-6-yl)-N2-methyl-1-phenyl-imidazo[4,5-c]pyridine-2,6-diamine]",50 to 100
6,"Cn1c(NCC2CCCO2)nc2cnc(-c3ccc(N4CCOCC4)cc3)cc21 (stereo not shown) [Compound 640, 1-methyl-6-(4-morpholinophenyl)-N-(tetrahydrofuran-2-ylmethyl)imidazo[4,5-c]pyridin-2-amine]",30 to 50
7,"COc1ccc(-c2nc3c(Nc4cccc(O)c4)nccc3[nH]2)cc1 [Compound 397, 3-[[2-(4-methoxyphenyl)-1H-imidazo[4,5-c]pyridin-4-yl]amino]phenol]",50 to 100
8,"CN(C)c1cccc(Nc2cc3c(cn2)cc(-c2cccnc2)n3C)c1 [Compound 89, N1,N1-dimethyl-N3-[1-methyl-2-(3-pyridyl)pyrrolo[3,2-c]pyridin-6-yl]benzene-1,3-diamine]",50 to 100
9,"c1ccc(Cn2cnc3c(NCc4ccco4)nccc32)cc1 [Compound 451, 1-benzyl-N-(2-furylmethyl)imidazo[4,5-c]pyridin-4-amine]",0 to 30
10,"CC(=O)Nc1cccc(Nc2cc3c(cn2)cc(-c2cnn(C)c2)n3Cc2ccccc2)c1 [Compound 157, N-[3-[[1-benzyl-2-(1-methylpyrazol-4-yl)pyrrolo[3,2-c]pyridin-6-yl]amino]phenyl]acetamide]",50 to 100
11,"COc1cccc(-c2nc3c(NCCc4ccccn4)nccc3[nH]2)c1 [Compound 371, 2-(3-methoxyphenyl)-N-[2-(2-pyridyl)ethyl]-1H-imidazo[4,5-c]pyridin-4-amine]",30 to 50
12,"COc1ccc(Nc2nccc3[nH]c(-c4cccnc4)cc23)cc1O [Compound 236, 2-methoxy-5-[[2-(3-pyridyl)-1H-pyrrolo[3,2-c]pyridin-4-yl]amino]phenol]",50 to 100
13,"Cn1c(NCCN2CCOCC2)nc2cnc(-c3cccc(F)c3)cc21 [Compound 769, 6-(3-fluorophenyl)-1-methyl-N-(2-morpholinoethyl)imidazo[4,5-c]pyridin-2-amine]",0 to 30
14,"COc1cc(OC)cc(-c2cc3c(N4CCOCC4)nccc3n2C)c1 [Compound 192, 4-[2-(3,5-dimethoxyphenyl)-1-methyl-pyrrolo[3,2-c]pyridin-4-yl]morpholine]",0 to 30
15,"CN(C)c1ccc(-c2cc3cnc(Nc4ccncn4)cc3n2Cc2ccccc2)cc1 [Compound 61, 1-benzyl-2-(4-dimethylaminophenyl)-N-pyrimidin-4-yl-pyrrolo[3,2-c]pyridin-6-amine]",0 to 30
16,"CNc1nc2cnc(Nc3ccc(SC)cc3)cc2n1CCOC [Compound 499, 1-(2-methoxyethyl)-N2-methyl-N6-(4-methylsulfanylphenyl)imidazo[4,5-c]pyridine-2,6-diamine]",50 to 100
17,"COc1ccc(Nc2nccc3[nH]c(-c4ccc5c(c4)OCCO5)nc23)cc1 [Compound 414, 2-(2,3-dihydro-1,4-benzodioxin-6-yl)-N-(4-methoxyphenyl)-1H-imidazo[4,5-c]pyridin-4-amine]",50 to 100
18,"COc1cccc(-c2cc3c(Nc4ccc(N5CCN(C)CC5)cc4)nccc3[nH]2)c1 [Compound 310, 2-(3-methoxyphenyl)-N-[4-(4-methylpiperazin-1-yl)phenyl]-1H-pyrrolo[3,2-c]pyridin-4-amine]",50 to 100
19,"CN(C)c1cccc(-c2cc3c(cn2)ncn3-c2cccc(F)c2)c1 [Compound 740, 3-[1-(3-fluorophenyl)imidazo[4,5-c]pyridin-6-yl]-N,N-dimethyl-aniline]",50 to 100
20,"COc1ccc(-c2nc3c(NCCc4ccccn4)nccc3[nH]2)cc1 [Compound 394, 2-(4-methoxyphenyl)-N-[2-(2-pyridyl)ethyl]-1H-imidazo[4,5-c]pyridin-4-amine]",30 to 50
21,"COC(=O)c1ccc(Nc2cc3c(cn2)cc(-c2cnn(C)c2)n3C)cc1 [Compound 141, methyl 4-[[1-methyl-2-(1-methylpyrazol-4-yl)pyrrolo[3,2-c]pyridin-6-yl]amino]benzoate]",50 to 100

row,Structure (SMILES),Emax [%]
1,"COc1ccc(-c2nc3c(NCC4CC4)nccc3[nH]2)cc1OC [Compound 354, N-(cyclopropylmethyl)-2-(3,4-dimethoxyphenyl)-1H-imidazo[4,5-c]pyridin-4-amine]",50 to 100
2,"CN(c1ccccc1)c1cc2c(cn1)cc(-c1cnn(C)c1)n2C [Compound 140, N,1-dimethyl-2-(1-methylpyrazol-4-yl)-N-phenyl-pyrrolo[3,2-c]pyridin-6-amine]",30 to 50
3,"CNc1nc2cnc(Nc3cccc(C)c3)cc2n1Cc1ccccc1 [Compound 530, 1-benzyl-N2-methyl-N6-(m-tolyl)imidazo[4,5-c]pyridine-2,6-diamine]",30 to 50
4,"Cn1c(Nc2ccccc2)nc2cnc(Nc3ccccc3)cc21 [Compound 634, 1-methyl-N2,N6-diphenyl-imidazo[4,5-c]pyridine-2,6-diamine]",50 to 100
5,"CNc1nc2cnc(Nc3ccc(OC)cc3)cc2n1Cc1ccco1 [Compound 523, 1-(2-furylmethyl)-N6-(4-methoxyphenyl)-N2-methyl-imidazo[4,5-c]pyridine-2,6-diamine]",50 to 100
6,"CN(C)C(=O)c1ccc(-c2cc3cnc(Nc4cccc(Oc5ccccc5)c4)cc3[nH]2)cc1 [Compound 35, N,N-dimethyl-4-[6-(3-phenoxyanilino)-1H-pyrrolo[3,2-c]pyridin-2-yl]benzamide]",0 to 30
7,"CC(=O)Nc1ccc(Nc2cc3c(cn2)nc(NCc2cccc(C)c2)n3C)cc1 [Compound 576, N-[4-[[1-methyl-2-(m-tolylmethylamino)imidazo[4,5-c]pyridin-6-yl]amino]phenyl]acetamide]",50 to 100
8,"COc1cccc(Nc2nccc3[nH]c(-c4ccc(OC)c(OC)c4)nc23)c1 [Compound 341, 2-(3,4-dimethoxyphenyl)-N-(3-methoxyphenyl)-1H-imidazo[4,5-c]pyridin-4-amine]",50 to 100
9,"COc1ccc(Nc2nccc3[nH]c(-c4ccncc4)nc23)cc1OC [Compound 423, N-(3,4-dimethoxyphenyl)-2-(4-pyridyl)-1H-imidazo[4,5-c]pyridin-4-amine]",> 100
10,"c1ccc(Cn2cnc3c(NC4CCCCC4)nccc32)cc1 [Compound 449, 1-benzyl-N-cyclohexyl-imidazo[4,5-c]pyridin-4-amine]",50 to 100
11,"CN1CCN(c2ccc(Nc3nccc4[nH]c(-c5cccnc5)cc34)cc2)CC1 [Compound 235, N-[4-(4-methylpiperazin-1-yl)phenyl]-2-(3-pyridyl)-1H-pyrrolo[3,2-c]pyridin-4-amine]",50 to 100
12,"Cn1c(-c2ccccc2)cc2c(Nc3cccc(O)c3)nccc21 [Compound 328, 3-[(1-methyl-2-phenyl-pyrrolo[3,2-c]pyridin-4-yl)amino]phenol]",30 to 50
13,"COc1ccc(Nc2nccc3c2cc(-c2ccccc2)n3C)cc1OC [Compound 326, N-(3,4-dimethoxyphenyl)-1-methyl-2-phenyl-pyrrolo[3,2-c]pyridin-4-amine]",30 to 50
14,"Cc1cccc(Nc2nccc3c2cc(-c2cccnc2)n3C)c1 [Compound 241, 1-methyl-N-(m-tolyl)-2-(3-pyridyl)pyrrolo[3,2-c]pyridin-4-amine]",0 to 30
15,"CN(C)C(=O)c1ccc(-c2cc3cnc(Nc4ccncn4)cc3n2Cc2ccccc2)cc1 [Compound 58, 4-[1-benzyl-6-(pyrimidin-4-ylamino)pyrrolo[3,2-c]pyridin-2-yl]-N,N-dimethyl-benzamide]",30 to 50
16,"COc1cccc(-c2cc3c(Nc4ccc(OC)c(O)c4)nccc3[nH]2)c1 [Compound 312, 2-methoxy-5-[[2-(3-methoxyphenyl)-1H-pyrrolo[3,2-c]pyridin-4-yl]amino]phenol]",50 to 100
17,"CC(=O)Nc1ccc(Nc2cc3[nH]c(-c4cccnc4)cc3cn2)cc1 [Compound 74, N-[4-[[2-(3-pyridyl)-1H-pyrrolo[3,2-c]pyridin-6-yl]amino]phenyl]acetamide]",> 100
18,"COc1ccc(-c2nc3c(NCc4ccc(N(C)C)cc4)nccc3[nH]2)cc1OC [Compound 350, 2-(3,4-dimethoxyphenyl)-N-[(4-dimethylaminophenyl)methyl]-1H-imidazo[4,5-c]pyridin-4-amine]",30 to 50
19,"CN(C)C(=O)c1ccc(-c2cc3cnc(N(C)c4ccccc4)cc3n2C)cc1 [Compound 52, N,N-dimethyl-4-[1-methyl-6-(N-methylanilino)pyrrolo[3,2-c]pyridin-2-yl]benzamide]",30 to 50
20,"CC(=O)Nc1ccc(Nc2cc3c(cn2)ncn3Cc2ccccc2)cc1 [Compound 694, N-[4-[(1-benzylimidazo[4,5-c]pyridin-6-yl)amino]phenyl]acetamide]",50 to 100
21,"Cn1c(Nc2ccccc2)nc2cnc(Nc3ccc(S(C)(=O)=O)cc3)cc21 [Compound 639, 1-methyl-N6-(4-methylsulfonylphenyl)-N2-phenyl-imidazo[4,5-c]pyridine-2,6-diamine]",50 to 100

# Same assay, conditions: insulin HTRF, supernatant of beta-TC6 cells, incubation with test compound at 37°C for 2, 3, 4h
row,Structure (SMILES),Ar (relative activity)
1,"CNc1nc2cnc(-c3ccc(CO)cc3)cc2n1-c1ccccc1 [Compound 785, [4-[2-(methylamino)-1-phenyl-imidazo[4,5-c]pyridin-6-yl]phenyl]methanol]",+ (0 % < Ar < 30 %)

# From patent publication EP2818472A1, “Imidazo[4,5-c]pyridine and pyrrolo[3,2-c]pyridine compounds as G-protein-coupled receptor kinase 5 (GRK5) modulators” (Max-Planck-Gesellschaft zur Förderung der Wissenschaften …, priority 2013, dated 2014)
